One assay has as its target HIS-TGFβR2 WT (Homo sapiens, UniProt P37173). As to the kind of experiment: HTRF probe-displacement assay with HIS-TGFβR2 WT. Format: binding. Particulars: 1 nM HIS-TGFβR2 WT, labeled probe at Kd, 1 hour at room temperature. In short, it runs like this:
(§1)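 Binding read as HTRF probe displacement with 1 nM HIS-tagged kinase, 0.2 nM anti-HIS antibody, labelled probe at Kd and 0.5% DMSO, 1 h at room temperature (Ex 340, Em 520/495 nm). Eleven-point dose response normalised to no-enzyme and vehicle controls; IC50 from non-linear regression.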
For orientation: Time-resolved FRET reads energy transfer from a long-lived donor to a nearby acceptor.

A further assay concerns the target T1, HIS-TGFβR1 T204D (Homo sapiens, UniProt P36897, T204D).
T1 sequence (P36897 34-503 T204D): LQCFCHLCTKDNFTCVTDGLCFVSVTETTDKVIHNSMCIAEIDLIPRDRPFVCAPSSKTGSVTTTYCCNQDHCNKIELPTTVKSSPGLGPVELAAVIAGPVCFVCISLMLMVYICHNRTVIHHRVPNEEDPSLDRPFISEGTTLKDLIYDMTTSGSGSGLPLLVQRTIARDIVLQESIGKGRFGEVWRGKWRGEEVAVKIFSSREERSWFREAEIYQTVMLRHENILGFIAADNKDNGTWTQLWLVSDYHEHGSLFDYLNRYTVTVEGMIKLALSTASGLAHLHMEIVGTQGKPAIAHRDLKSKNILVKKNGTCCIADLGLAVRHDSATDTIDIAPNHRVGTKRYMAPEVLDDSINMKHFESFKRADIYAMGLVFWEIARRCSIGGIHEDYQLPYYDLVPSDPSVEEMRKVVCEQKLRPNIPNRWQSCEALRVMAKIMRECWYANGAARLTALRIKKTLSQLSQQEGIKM
As to the kind of experiment: HTRF probe-displacement assay with HIS-TGFβR1 T204D. Format: binding. As to conditions: 1 nM HIS-TGFβR1 T204D, labeled probe at Kd, 1 hour at room temperature. In short, it runs like this:
as §1

In patent US20190292179A1 (BRISTOL-MYERS SQUIBB COMPANY, priority 2016, published 2019) one finds IC50 data, which are given here for 13 molecules.

HIS-TGFβR2 WT, sequence (P37173 23-567): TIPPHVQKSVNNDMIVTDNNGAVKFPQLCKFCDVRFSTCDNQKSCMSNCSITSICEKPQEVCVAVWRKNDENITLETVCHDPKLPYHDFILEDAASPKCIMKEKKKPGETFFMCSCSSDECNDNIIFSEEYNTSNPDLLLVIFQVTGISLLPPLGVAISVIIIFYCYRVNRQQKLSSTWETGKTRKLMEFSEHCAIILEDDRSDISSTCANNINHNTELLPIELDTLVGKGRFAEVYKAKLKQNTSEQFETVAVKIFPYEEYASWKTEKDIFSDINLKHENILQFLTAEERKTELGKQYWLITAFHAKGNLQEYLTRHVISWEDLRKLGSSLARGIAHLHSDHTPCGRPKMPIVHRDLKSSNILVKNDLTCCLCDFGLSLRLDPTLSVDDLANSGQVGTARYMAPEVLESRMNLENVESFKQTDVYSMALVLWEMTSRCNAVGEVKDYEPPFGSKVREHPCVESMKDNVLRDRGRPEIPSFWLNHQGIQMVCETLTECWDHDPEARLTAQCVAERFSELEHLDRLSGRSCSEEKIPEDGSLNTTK

`N#Cc1cnc2ccc(-c3cn(CC(F)F)nc3-c3ccc(F)c(Cl)c3)cn12` [Example 61, 6-(3-(3-chloro-4-fluorophenyl)-1-(2,2-difluoroethyl)-1H-pyrazol-4-yl)imidazo[1,2-a]pyridine-3-carbonitrile]: the IC50 – broadly, the concentration that gives 50% inhibition – was determined as 2.28 µM at HIS-TGFβR2 WT and 0.007 µM on HIS-TGFβR1 T204D.
`Cc1cc(-c2n[nH]cc2-c2ccc3nccn3c2)ccc1F` [Example 48, 6-(3-(4-fluoro-3-methylphenyl)-1H-pyrazol-4-yl)imidazo[1,2-a]pyridine]: the IC50 on HIS-TGFβR2 WT amounted to 4.12 µM; at HIS-TGFβR1 T204D it was 0.002 µM.
For `Cc1cccc(-c2n[nH]c(C3CC3)c2-c2ccc3ncc(C#N)n3c2)n1` [Example 121, 6-(5-cyclopropyl-3-(6-methylpyridin-2-yl)-1H-pyrazol-4-yl)imidazo[1,2-a]pyridine-3-carbonitrile], in that order: 0.216 µM and 0.001 µM.
For `Fc1ccc(-c2n[nH]cc2-c2ccn3ncnc3c2)cc1` [Example 29, 7-(3-(4-fluorophenyl)-1H-pyrazol-4-yl)-[1,2,4]triazolo[1,5-a]pyridine] the same measures were 1.1 µM and 0.003 µM.
Turning to `Cc1cc(-c2n[nH]c(C(C)C)c2-c2ccc3ncc(C(N)=O)n3c2)ccc1F` [Example 79, 6-(3-(4-fluoro-3-methylphenyl)-5-isopropyl-1H-pyrazol-4-yl)imidazo[1,2-a]pyridine-3-carboxamide], the IC50 stood at 0.136 µM at HIS-TGFβR2 WT and 0.001 µM on HIS-TGFβR1 T204D.
On to `CC(C)c1[nH]nc(-c2ccc(F)cc2)c1-c1ccc2[nH]ncc2c1` [Example 70, 5-(3-(4-fluorophenyl)-5-isopropyl-1H-pyrazol-4-yl)-1H-indazole], for which the IC50 at HIS-TGFβR2 WT was determined as 6.1 µM; at HIS-TGFβR1 T204D, 0.001 µM.
For `NC(=O)c1cnc2ccc(-c3c(-c4ccc(F)cc4)nn4c3COCC4)cn12` [Example 111, 6-(2-(4-fluorophenyl)-6,7-dihydro-4H-pyrazolo[5,1-c][1,4]oxazin-3-yl)imidazo[1,2-a]pyridine-3-carboxamide], in that order: 0.577 µM and 0.002 µM.
For `Cc1cccc(-c2n[nH]c(C3CC3)c2-c2ccc3nccn3c2)n1` [Example 123, 6-(5-cyclopropyl-3-(6-methylpyridin-2-yl)-1H-pyrazol-4-yl)imidazo[1,2-a]pyridine] the same measures were 0.469 µM and 0.001 µM.
As for `Fc1ccc(-c2n[nH]cc2-c2ccc3nccn3c2)cc1` [Example 34, 6-(3-(4-fluorophenyl)-1H-pyrazol-4-yl)imidazo[1,2-a]pyridine], the IC50 on HIS-TGFβR2 WT stood at 5.02 µM; at HIS-TGFβR1 T204D it was 0.014 µM.
For `Cc1cc(-c2n[nH]c(C(C)C)c2-c2ccc3ncc(C#N)n3c2)ccc1F` [Example 78, 6-(3-(4-fluoro-3-methylphenyl)-5-isopropyl-1H-pyrazol-4-yl)imidazo[1,2-a]pyridine-3-carbonitrile], in that order: 6.67 µM and 0.001 µM.
On to `CCc1c(-c2ccc3ncc(C(N)=O)n3c2)c(-c2cccc(C)n2)nn1C` [Example 127, 6-(5-ethyl-1-methyl-3-(6-methylpyridin-2-yl)-1H-pyrazol-4-yl)imidazo[1,2-a]pyridine-3-carboxamide], for which the IC50 was 0.128 µM on HIS-TGFβR2 WT and 0.001 µM on HIS-TGFβR1 T204D.
On to `Cn1cc(-c2ccc3ncc(C(N)=O)n3c2)c(-c2cccc(C(F)(F)F)n2)n1` [Example 10, 6-(1-methyl-3-(6-(trifluoromethyl)pyridin-2-yl)-1H-pyrazol-4-yl)imidazo[1,2-a]pyridine-3-carboxamide], for which the IC50 on HIS-TGFβR2 WT worked out at 8.87 µM; on HIS-TGFβR1 T204D, 0.001 µM.
On to `Cc1cc(-c2n[nH]cc2-c2ccc3ncc(C#N)n3c2)ccc1F` [Example 49, 6-(3-(4-fluoro-3-methylphenyl)-1H-pyrazol-4-yl)imidazo[1,2-a]pyridine-3-carbonitrile], for which the figures for the IC50 on HIS-TGFβR2 WT and on HIS-TGFβR1 T204D were 0.104 µM and 0.001 µM, respectively.
